Tests used:
C2C12 myoblast cells [1] = system: C2C12 myoblast cells
Experimental: Mammalian cells (e.g., C2C12 myoblast cells) are treated with a suitable amount of a test compound (e.g., 5 μM reversine) in DMEM supplemented with 10% FBS for four days. The compound is then removed and medium is changed to ODM every two days. After seven days following induction of osteogenesis, the cells are washed with PBS (200 μL, 3 times) and fixed with 10% formalin solution (Sigma) for 20 min. The fixed cells are then washed with PBS (200 μL, 3 times) and stained with the Alkaline Phosphatase Staining Kit 86R (Sigma) as directed by the manufacturer. Images are taken on a Nikon Eclipse TE2000 microscope at 200 fold magnification.
(§1) After four days of treatment with reversine, the compound was removed and cells were then grown in osteogenic differentiation medium (ODM) or adipogenic differentiation medium (ADM).

C2C12 myoblast cells [2] = system: C2C12 myoblast cells; remark: listed apart in the source
Experimental: Mammalian cells (e.g., C2C12 myoblast cells) were treated with a suitable amount of a test compound (e.g., 5 μM reversine) in DMEM supplemented with 10% FBS for four days. The compound was then removed and medium was changed to adipogenic differentiation medium (ADM) containing 0.5 mM 3-isobutyl-1-methylxanthine, 2.5 μg/ml insulin, and 0.5 μM dexamethasone. Typically, the ADM is replaced every two days. After seven days following induction of adipogenesis, the cells are washed with PBS (200 μL, 3 times) and fixed with 10% formalin solution (Sigma) for 10 min. The fixed cells are then washed with PBS (200 μL, 3 times) and stained with the 0.7% Oil Red O (Sigma) as directed by the manufacturer. Images are taken on a Nikon Eclipse TE2000 microscope at 200 fold magnification.
as §1

C2C12 myoblasts cells = assay: Cell death at effective concentration
Experimental: as §1

C2C12 myoblast cells [3] = conditions: 5 μM reversine, day four of compound treatment
C2C12 cells = conditions: single-cell colonies, 6 days of treatment, portions cultured in ODM and ADM
Experimental: Clonal analysis is used to verify that reversine can induce dedifferentiation at the single cell level. C2C12 cells were cultured from a single cell and treated with reversine. After 6 days of treatment, each colony was divided into two portions. One portion was cultured in ODM and another portion was cultured in ADM. The cells were then analyzed using the staining assays described in Example 1.

C2C12 myoblast cells [4] = conditions: 5 μM compound for four days, then seven days in osteogenic inducing medium; BBTP substrate
Experimental: C2C12 cells (ATCC CRL-1772) are cultured in DMEM (Gibco) supplemented with 10% fetal bovine serum (HyClone) at 37° C. in 5% CO2.
For the small molecule screen, proliferating C2C12 cells are plated into black 384-well tissue culture plates (Greiner) at a density of 1,000 cells/well in DMEM with 10% FBS. […] After the cells are treated with test compounds for four days, the test compound is removed and the cell culture medium is changed to osteogenic differentiation medium (ODM) containing 50 μg/ml ascorbic acid 2-phosphate, 0.1 μM dexamethasone and 10 mM β-glycerophosphate. Cell culture medium is typically changed every two days. After seven additional days of culture in ODM, the ODM is removed and cells are lysed by incubation in 10 μL passive lysis buffer (Promega) for 10 min, followed by addition of 10 μL alkaline phosphatase substrate solution (AttoPhos, Promega). After a 15 minute room temperature incubation, fluorescence intensity is read on an Acquest (Molecular Devices) as directed by the manufacturer. […]

For `c1nc2nc(Nc3ccc(N4CCOCC4)cc3)nc(NC3CCCCC3)c2[nH]1` [Compound A, 2-(4-Morpholinoanilino)-6-cyclohexylamino-purine], the “cells stained positive for ALP” value (C2C12 myoblast cells [1]; four days of treatment, compound removed, ODM conditions, end of day seven) was 35%, the “osteogenesis activity of compound alone” value (C2C12 myoblast cells [1]; in the absence of ODM) was “no osteogenesis activity” and the “cells with fat cell morphology, stained positive with Oil Red O” value (C2C12 myoblast cells [2]; four days of treatment, compound removed, ADM condition, end of day seven) was 40%. The “adipogenesis activity of compound alone” value (C2C12 myoblast cells [2]; in the absence of ADM) was “no adipogenesis activity”, the cell death (C2C12 myoblasts cells) was “no significant cell death” and the effective concentration (C2C12 myoblasts cells; C2C12 dedifferentiation) was 0.5 to 5 µM. For the same molecule, the “myogenic specific markers such as MyoD and myosin” value (C2C12 myoblast cells [3]) was “began to disappear”, the myotube formation (C2C12 myoblast cells [3]) was “completely inhibited” and the “colonies determined to be multipotent” value (C2C12 cells) was 56 of 97. The “level of ALP activity relative to the DMSO control treatment” value (C2C12 myoblast cells [4]) was 7 fold.

Reference: patent US20130196989A1, “COMPOSITIONS AND METHODS FOR INDUCING CELL DEDIFFERENTIATION” (The Scripps Research Institute, priority 2003, published 2013)
